From PubChem BioAssay (NCI)
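96-well plates; 48 h exposure; 5 concentrations. Endpoints by linear interpolation between flanking doses. Not reached: highest tested concentration assigned. TGI: total growth inhibition.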

Assays:
Assay in all cases: growth of human tumour cells (NCI), 48 h
SF-295 CNS = tested on: SF-295 CNS
SR leukemia = tested on: SR leukemia
SK-MEL-5 melanoma = tested on: SK-MEL-5 melanoma
RXF 393 renal = tested on: RXF 393 renal
OVCAR-3 ovarian = tested on: OVCAR-3 ovarian
DU-145 prostate = tested on: DU-145 prostate
NCI-H23 lung = tested on: NCI-H23 lung
MDA-MB-435 = tested on: MDA-MB-435
SK-OV-3 ovarian = tested on: SK-OV-3 ovarian
HCC-2998 colon = tested on: HCC-2998 colon
T-47D breast = tested on: T-47D breast
BT-549 breast = tested on: BT-549 breast
LOX IMVI melanoma = tested on: LOX IMVI melanoma
M14 melanoma = tested on: M14 melanoma
NCI-H226 lung = tested on: NCI-H226 lung
COLO 205 colon = tested on: COLO 205 colon
U251 CNS = tested on: U251 CNS
OVCAR-4 ovarian = tested on: OVCAR-4 ovarian
UACC-257 melanoma = tested on: UACC-257 melanoma
HCT-15 colon = tested on: HCT-15 colon
HL-60(TB) leukemia = tested on: HL-60(TB) leukemia
SF-268 CNS = tested on: SF-268 CNS
NCI/ADR-RES ovarian = tested on: NCI/ADR-RES ovarian
786-0 renal = tested on: 786-0 renal
HCT-116 colon = tested on: HCT-116 colon
RPMI-8226 leukemia = tested on: RPMI-8226 leukemia
ACHN renal = tested on: ACHN renal
SNB-75 CNS = tested on: SNB-75 CNS
SK-MEL-28 melanoma = tested on: SK-MEL-28 melanoma
CAKI-1 renal = tested on: CAKI-1 renal
A498 renal = tested on: A498 renal
K-562 leukemia = tested on: K-562 leukemia
NCI-H522 lung = tested on: NCI-H522 lung
UO-31 renal = tested on: UO-31 renal
SNB-19 CNS = tested on: SNB-19 CNS
OVCAR-5 ovarian = tested on: OVCAR-5 ovarian
HOP-62 NSCLC = tested on: HOP-62 NSCLC
PC-3 prostate = tested on: PC-3 prostate
TK-10 renal = tested on: TK-10 renal
SW-620 colon = tested on: SW-620 colon
MDA-MB-231 breast = tested on: MDA-MB-231 breast
KM12 colon = tested on: KM12 colon
A549 NSCLC = tested on: A549 NSCLC
SK-MEL-2 melanoma = tested on: SK-MEL-2 melanoma
HOP-92 NSCLC = tested on: HOP-92 NSCLC
SN12C renal = tested on: SN12C renal
EKVX NSCLC = tested on: EKVX NSCLC
HS 578T breast = tested on: HS 578T breast
MALME-3M melanoma = tested on: MALME-3M melanoma
OVCAR-8 ovarian = tested on: OVCAR-8 ovarian
HT29 colon = tested on: HT29 colon
NCI-H460 lung = tested on: NCI-H460 lung
MDA-N = tested on: MDA-N
UACC-62 melanoma = tested on: UACC-62 melanoma
CCRF-CEM leukemia = tested on: CCRF-CEM leukemia
IGROV1 ovarian = tested on: IGROV1 ovarian
MCF7 breast = tested on: MCF7 breast
MOLT-4 leukemia = tested on: MOLT-4 leukemia
SF-539 CNS = tested on: SF-539 CNS

O=C(O)CCC(C(=O)O)N1C(=O)c2ccccc2C1=O (centres undefined)
TGI (SF-295 CNS): > 100 µM
TGI (SR leukemia): > 100 µM
TGI (SK-MEL-5 melanoma): > 100 µM
TGI (RXF 393 renal): > 100 µM
TGI (OVCAR-3 ovarian): > 100 µM
TGI (DU-145 prostate): > 100 µM
TGI (NCI-H23 lung): > 100 µM
TGI (MDA-MB-435): > 100 µM
TGI (SK-OV-3 ovarian): > 100 µM
TGI (HCC-2998 colon): > 100 µM
TGI (T-47D breast): > 100 µM
TGI (BT-549 breast): > 100 µM
TGI (LOX IMVI melanoma): > 100 µM
TGI (M14 melanoma): > 100 µM
TGI (NCI-H226 lung): > 100 µM
TGI (COLO 205 colon): > 100 µM
TGI (U251 CNS): > 100 µM
TGI (OVCAR-4 ovarian): > 100 µM
TGI (UACC-257 melanoma): > 100 µM
TGI (HCT-15 colon): > 100 µM
TGI (HL-60(TB) leukemia): > 100 µM
TGI (SF-268 CNS): > 100 µM
TGI (NCI/ADR-RES ovarian): > 100 µM
TGI (786-0 renal): > 100 µM
TGI (HCT-116 colon): > 100 µM
TGI (RPMI-8226 leukemia): > 100 µM
TGI (ACHN renal): > 100 µM
TGI (SNB-75 CNS): > 100 µM
TGI (SK-MEL-28 melanoma): > 100 µM
TGI (CAKI-1 renal): > 100 µM
TGI (A498 renal): > 100 µM
TGI (K-562 leukemia): > 100 µM
TGI (NCI-H522 lung): > 100 µM
TGI (UO-31 renal): > 100 µM
TGI (SNB-19 CNS): > 100 µM
TGI (OVCAR-5 ovarian): > 100 µM
TGI (HOP-62 NSCLC): > 100 µM
TGI (PC-3 prostate): > 100 µM
TGI (TK-10 renal): > 100 µM
TGI (SW-620 colon): > 100 µM
TGI (MDA-MB-231 breast): > 100 µM
TGI (KM12 colon): > 100 µM
TGI (A549 NSCLC): > 100 µM
TGI (SK-MEL-2 melanoma): > 100 µM
TGI (HOP-92 NSCLC): > 100 µM
TGI (SN12C renal): > 100 µM
TGI (EKVX NSCLC): > 100 µM
TGI (HS 578T breast): > 100 µM
TGI (MALME-3M melanoma): > 100 µM
TGI (OVCAR-8 ovarian): > 100 µM
TGI (HT29 colon): > 100 µM
TGI (NCI-H460 lung): > 100 µM
TGI (MDA-N): > 100 µM
TGI (UACC-62 melanoma): > 100 µM
TGI (CCRF-CEM leukemia): > 100 µM
TGI (IGROV1 ovarian): > 100 µM
TGI (MCF7 breast): > 100 µM

O=c1c2ncn(C3CCCCO3)c2n(-c2ccccc2)c(=S)n1-c1ccccc1 (centres undefined)
TGI (SF-295 CNS): 51.7 µM
TGI (SR leukemia): > 100 µM
TGI (SK-MEL-5 melanoma): > 100 µM
TGI (RXF 393 renal): 25.4 µM
TGI (OVCAR-3 ovarian): > 81.3 µM
TGI (DU-145 prostate): > 100 µM
TGI (NCI-H23 lung): 64.3 µM
TGI (MDA-MB-435): > 100 µM
TGI (SK-OV-3 ovarian): 61 µM
TGI (HCC-2998 colon): > 100 µM
TGI (T-47D breast): > 77.3 µM
TGI (BT-549 breast): 72.1 µM
TGI (LOX IMVI melanoma): > 100 µM
TGI (MOLT-4 leukemia): > 100 µM
TGI (M14 melanoma): > 100 µM
TGI (NCI-H226 lung): 86.2 µM
TGI (COLO 205 colon): > 100 µM
TGI (U251 CNS): > 74.2 µM
TGI (OVCAR-4 ovarian): > 87.2 µM
TGI (UACC-257 melanoma): > 100 µM
TGI (HCT-15 colon): > 100 µM
TGI (HL-60(TB) leukemia): > 100 µM
TGI (SF-268 CNS): > 92.2 µM
TGI (NCI/ADR-RES ovarian): > 82.6 µM
TGI (786-0 renal): > 86.2 µM
TGI (HCT-116 colon): > 100 µM
TGI (RPMI-8226 leukemia): > 100 µM
TGI (ACHN renal): > 100 µM
TGI (SNB-75 CNS): 20.7 µM
TGI (SK-MEL-28 melanoma): > 100 µM
TGI (CAKI-1 renal): > 97.7 µM
TGI (A498 renal): 89.6 µM
TGI (K-562 leukemia): > 100 µM
TGI (NCI-H522 lung): > 86.7 µM
TGI (UO-31 renal): > 71.4 µM
TGI (SNB-19 CNS): > 69.4 µM
TGI (OVCAR-5 ovarian): > 76.5 µM
TGI (HOP-62 NSCLC): 29.9 µM
TGI (PC-3 prostate): > 100 µM
TGI (TK-10 renal): 83 µM
TGI (SW-620 colon): > 100 µM
TGI (MDA-MB-231 breast): 73.5 µM
TGI (KM12 colon): > 100 µM
TGI (A549 NSCLC): > 100 µM
TGI (SK-MEL-2 melanoma): > 79.7 µM
TGI (HOP-92 NSCLC): 31 µM
TGI (SN12C renal): > 100 µM
TGI (EKVX NSCLC): > 87.9 µM
TGI (HS 578T breast): 53.6 µM
TGI (MALME-3M melanoma): > 100 µM
TGI (OVCAR-8 ovarian): > 100 µM
TGI (HT29 colon): > 100 µM
TGI (NCI-H460 lung): > 100 µM
TGI (MDA-N): > 100 µM
TGI (UACC-62 melanoma): 56.5 µM
TGI (CCRF-CEM leukemia): > 100 µM
TGI (IGROV1 ovarian): 69.2 µM
TGI (SF-539 CNS): 32.4 µM
TGI (MCF7 breast): > 100 µM

CN(C)CCCN=C(N)N
TGI (SF-295 CNS): > 100 µM
TGI (SR leukemia): > 100 µM
TGI (SK-MEL-5 melanoma): > 100 µM
TGI (RXF 393 renal): > 100 µM
TGI (OVCAR-3 ovarian): > 100 µM
TGI (DU-145 prostate): > 100 µM
TGI (NCI-H23 lung): > 100 µM
TGI (MDA-MB-435): > 100 µM
TGI (SK-OV-3 ovarian): > 100 µM
TGI (T-47D breast): > 100 µM
TGI (BT-549 breast): > 100 µM
TGI (LOX IMVI melanoma): > 100 µM
TGI (MOLT-4 leukemia): > 100 µM
TGI (M14 melanoma): > 100 µM
TGI (NCI-H226 lung): > 100 µM
TGI (COLO 205 colon): > 100 µM
TGI (U251 CNS): > 100 µM
TGI (OVCAR-4 ovarian): > 100 µM
TGI (UACC-257 melanoma): > 100 µM
TGI (HCT-15 colon): > 100 µM
TGI (HL-60(TB) leukemia): > 100 µM
TGI (SF-268 CNS): > 100 µM
TGI (NCI/ADR-RES ovarian): > 100 µM
TGI (786-0 renal): > 100 µM
TGI (HCT-116 colon): > 100 µM
TGI (RPMI-8226 leukemia): > 100 µM
TGI (ACHN renal): > 100 µM
TGI (SNB-75 CNS): > 100 µM
TGI (SK-MEL-28 melanoma): > 100 µM
TGI (CAKI-1 renal): > 100 µM
TGI (A498 renal): > 100 µM
TGI (K-562 leukemia): > 100 µM
TGI (NCI-H522 lung): > 100 µM
TGI (UO-31 renal): > 100 µM
TGI (SNB-19 CNS): > 100 µM
TGI (OVCAR-5 ovarian): > 100 µM
TGI (HOP-62 NSCLC): > 100 µM
TGI (PC-3 prostate): > 100 µM
TGI (TK-10 renal): > 100 µM
TGI (SW-620 colon): > 100 µM
TGI (MDA-MB-231 breast): > 100 µM
TGI (KM12 colon): > 100 µM
TGI (A549 NSCLC): > 100 µM
TGI (SK-MEL-2 melanoma): > 100 µM
TGI (HOP-92 NSCLC): > 100 µM
TGI (SN12C renal): > 100 µM
TGI (EKVX NSCLC): > 100 µM
TGI (HS 578T breast): > 100 µM
TGI (MALME-3M melanoma): > 100 µM
TGI (OVCAR-8 ovarian): > 100 µM
TGI (HT29 colon): > 100 µM
TGI (NCI-H460 lung): > 100 µM
TGI (MDA-N): > 100 µM
TGI (UACC-62 melanoma): > 100 µM
TGI (CCRF-CEM leukemia): > 100 µM
TGI (IGROV1 ovarian): > 100 µM
TGI (SF-539 CNS): > 100 µM
TGI (MCF7 breast): > 100 µM
